Laboratory results taken from ChEMBL document CHEMBL5252616, “Design, synthesis and biological evaluation of the tumor hypoxia-activated PROTACs bearing caged CRBN E3 ligase ligands” (Bioorg Med Chem, 2023).
Activity calls are given as the source filed them. The calls are words filed in the database; no cut-off is given here.

What was measured:
PC-9 [1] = test: Antitumor activity against human PC-9 cells assessed as inhibition of cell viability incubated for 72 hrs under normoxia condition by CCK8 assay; assay type: functional, cell-based; conditions: PC-9, 72 h
PC-9 [2] = test: Antitumor activity against human PC-9 cells assessed as inhibition of cell viability incubated for 72 hrs under hypoxia condition by CCK8 assay; assay type: functional, cell-based; conditions: PC-9, 72 h
[3] = tested on: Protein cereblon/Epidermal growth factor receptor (Homo sapiens), P00533+Q96SW2 [UNDEFINED MUTATION]; test: Protac activity at CRBN/EGFR deletion19 mutant in human PC-9 cells assessed as induction of EGFR degradation at 100 nM and measured after 24 hrs under normoxia condition by Western blot analysis; assay type: cell-based
PC-9 [4] = test: Induction of apoptosis in human PC-9 cells assessed as live cells at 0.1 uM incubated for 72 hrs under normoxia condition by Annexin V-FITC/ PI staining based flow cytometry (Rvb= 94.53%); assay type: functional
PC-9 [5] = test: Induction of apoptosis in human PC-9 cells assessed as apoptotic cells at 0.1 uM incubated for 72 hrs under normoxia condition by Annexin V-FITC/ PI staining based flow cytometry (Rvb= 4.54%); assay type: functional
PC-9 [6] = test: Inhibition of cell migration in human PC-9 cells at 100 nM incubated for 24 hrs under hypoxia condition by imaging analysis; assay type: functional, cell-based
[7] = Prodrug conversion in hypoxia condition assessed as nitroreductase mediated active drug N-(4-((3-chloro-4-fluorophenyl)amino)-7-(((S)-tetrahydrofuran-3-yl)oxy)quinazolin-6-yl)-3-(2-(2-(2-((2-(2,6-dioxopiperidin-3-yl)-1,3-dioxoisoindolin-4-yl)oxy)ethoxy)ethoxy)ethoxy)propanamide formation in presence of NADPH as cofactor at 1 uM and measured after 60 mins by UPLC-MS/MS analysis; assay type: ADME; conditions: isolated protein, 1 h
PC-9 [8] = test: Induction of apoptosis in human PC-9 cells assessed as live cells at 0.1 uM incubated for 72 hrs under hypoxia condition by Annexin V-FITC/ PI staining based flow cytometry (Rvb= 88.19%); assay type: functional
PC-9 [9] = test: Induction of apoptosis in human PC-9 cells assessed as late apoptotic cells at 0.1 uM incubated for 72 hrs under normoxia condition by Annexin V-FITC/ PI staining based flow cytometry (Rvb= 3.72%); assay type: functional
PC-9 [10] = test: Induction of apoptosis in human PC-9 cells assessed as late apoptotic cells at 0.1 uM incubated for 72 hrs under hypoxia condition by Annexin V-FITC/ PI staining based flow cytometry (Rvb= 4.73%); assay type: functional
[11] = Prodrug conversion in hypoxia condition assessed as nitroreductase mediated drug degradation by measuring parent compound remaining in presence of NADPH as cofactor at 1 uM and measured after 60 mins by UPLC-MS/MS analysis; assay type: ADME; conditions: isolated protein, 1 h
[12] = tested on: Protein cereblon/Epidermal growth factor receptor (Homo sapiens), P00533+Q96SW2 [UNDEFINED MUTATION]; test: Protac activity at CRBN/EGFR deletion19 mutant in human PC-9 cells assessed as induction of EGFR degradation at 0.001 to 0.1 uM and measured after 24 hrs under hypoxia condition by Western blot analysis; assay type: cell-based; conditions: dose 0.001-0.1 µM
PC-9 [13] = test: Induction of apoptosis in human PC-9 cells assessed as early apoptotic cells at 0.1 uM incubated for 72 hrs under normoxia condition by Annexin V-FITC/ PI staining based flow cytometry (Rvb= 0.82%); assay type: functional
PC-9 [14] = test: Induction of apoptosis in human PC-9 cells assessed as early apoptotic cells at 0.1 uM incubated for 72 hrs under hypoxia condition by Annexin V-FITC/ PI staining based flow cytometry (Rvb= 4.27%); assay type: functional
PC-9 [15] = test: Inhibition of cell migration in human PC-9 cells at 100 nM incubated for 24 hrs under normoxia condition by imaging analysis; assay type: functional, cell-based
PC-9 [16] = test: Induction of apoptosis in human PC-9 cells assessed as necrotic cells at 0.1 uM incubated for 72 hrs under normoxia condition by Annexin V-FITC/ PI staining based flow cytometry (Rvb= 0.93%); assay type: functional
[17] = tested on: Protein cereblon/Epidermal growth factor receptor (Homo sapiens), P00533+Q96SW2 [UNDEFINED MUTATION]; test: Protac activity at CRBN/EGFR deletion19 mutant in human PC-9 cells assessed as induction of EGFR degradation at 0.001 to 0.1 uM and measured after 24 hrs under normoxia condition by Western blot analysis; assay type: cell-based; conditions: dose 0.001-0.1 µM
[18] = tested on: Protein cereblon/Epidermal growth factor receptor (Homo sapiens), P00533+Q96SW2 [UNDEFINED MUTATION]; test: Protac activity at CRBN/EGFR deletion19 mutant in human PC-9 cells assessed as induction of EGFR degradation at 0.5 to 1 uM and measured after 24 hrs under normoxia condition by Western blot analysis; assay type: cell-based; conditions: dose 0.5-1 µM
[19] = tested on: Protein cereblon/Epidermal growth factor receptor (Homo sapiens), P00533+Q96SW2 [UNDEFINED MUTATION]; test: Protac activity at CRBN/EGFR deletion19 mutant in human PC-9 cells assessed as induction of EGFR degradation at 0.5 to 1 uM and measured after 24 hrs under hypoxia condition by Western blot analysis; assay type: cell-based; conditions: dose 0.5-1 µM
PC-9 [20] = test: Induction of apoptosis in human PC-9 cells assessed as necrotic cells at 0.1 uM incubated for 72 hrs under hypoxia condition by Annexin V-FITC/ PI staining based flow cytometry (Rvb= 2.81%); assay type: functional
PC-9 [21] = test: Induction of apoptosis in human PC-9 cells assessed as apoptotic cells at 0.1 uM incubated for 72 hrs under hypoxia condition by Annexin V-FITC/ PI staining based flow cytometry (Rvb= 9%); assay type: functional
[22] = tested on: Protein cereblon/Epidermal growth factor receptor (Homo sapiens), P00533+Q96SW2 [UNDEFINED MUTATION]; test: Protac activity at CRBN/EGFR deletion19 mutant in human PC-9 cells assessed as induction of EGFR degradation at 0.001 to 1 uM and measured after 24 hrs under hypoxia condition by Western blot analysis; assay type: cell-based; conditions: dose 0.001-1 µM
[23] = tested on: Protein cereblon/Epidermal growth factor receptor (Homo sapiens), P00533+Q96SW2 [UNDEFINED MUTATION]; test: Protac activity at CRBN/EGFR deletion19 mutant in human PC-9 cells assessed as induction of EGFR degradation at 0.001 to 1 uM and measured after 24 hrs under normoxia condition by Western blot analysis; assay type: cell-based; conditions: dose 0.001-1 µM

Protein cereblon/Epidermal growth factor receptor (Homo sapiens), P00533+Q96SW2 [UNDEFINED MUTATION], sequence (P00533 whole entry, looked up, stated change not applied): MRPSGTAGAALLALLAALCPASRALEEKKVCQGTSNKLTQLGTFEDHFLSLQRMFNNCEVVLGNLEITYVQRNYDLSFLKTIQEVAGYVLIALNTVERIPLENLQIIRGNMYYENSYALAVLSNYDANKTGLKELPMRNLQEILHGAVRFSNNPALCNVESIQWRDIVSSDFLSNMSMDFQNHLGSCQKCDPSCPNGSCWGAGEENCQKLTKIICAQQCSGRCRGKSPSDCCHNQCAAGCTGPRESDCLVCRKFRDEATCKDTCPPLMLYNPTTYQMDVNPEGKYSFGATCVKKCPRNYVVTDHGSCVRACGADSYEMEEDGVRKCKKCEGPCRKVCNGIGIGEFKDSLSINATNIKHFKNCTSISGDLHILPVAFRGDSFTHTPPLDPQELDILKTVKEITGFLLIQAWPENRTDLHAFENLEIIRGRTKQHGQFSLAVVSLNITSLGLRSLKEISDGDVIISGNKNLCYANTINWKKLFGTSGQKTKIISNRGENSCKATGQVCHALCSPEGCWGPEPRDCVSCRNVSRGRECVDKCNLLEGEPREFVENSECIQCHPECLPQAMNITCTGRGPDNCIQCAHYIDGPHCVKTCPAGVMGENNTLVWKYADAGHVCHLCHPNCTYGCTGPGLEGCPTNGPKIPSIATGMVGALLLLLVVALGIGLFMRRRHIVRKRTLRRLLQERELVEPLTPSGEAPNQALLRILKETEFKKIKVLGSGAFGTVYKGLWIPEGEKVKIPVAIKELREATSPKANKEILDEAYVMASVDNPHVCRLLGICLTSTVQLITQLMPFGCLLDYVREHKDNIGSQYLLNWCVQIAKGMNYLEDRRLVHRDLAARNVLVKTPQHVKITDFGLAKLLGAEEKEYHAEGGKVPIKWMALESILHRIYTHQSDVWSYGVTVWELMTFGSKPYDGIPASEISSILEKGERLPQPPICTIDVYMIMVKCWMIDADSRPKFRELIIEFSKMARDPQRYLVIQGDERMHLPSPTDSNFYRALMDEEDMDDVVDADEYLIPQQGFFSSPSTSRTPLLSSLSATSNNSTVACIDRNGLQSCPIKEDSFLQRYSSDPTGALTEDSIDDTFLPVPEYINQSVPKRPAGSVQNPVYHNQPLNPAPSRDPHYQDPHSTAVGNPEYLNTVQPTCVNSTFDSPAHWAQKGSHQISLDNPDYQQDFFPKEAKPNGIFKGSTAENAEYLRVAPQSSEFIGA
Protein cereblon/Epidermal growth factor receptor (Homo sapiens), P00533+Q96SW2 [UNDEFINED MUTATION], sequence (Q96SW2 whole entry, looked up, stated change not applied): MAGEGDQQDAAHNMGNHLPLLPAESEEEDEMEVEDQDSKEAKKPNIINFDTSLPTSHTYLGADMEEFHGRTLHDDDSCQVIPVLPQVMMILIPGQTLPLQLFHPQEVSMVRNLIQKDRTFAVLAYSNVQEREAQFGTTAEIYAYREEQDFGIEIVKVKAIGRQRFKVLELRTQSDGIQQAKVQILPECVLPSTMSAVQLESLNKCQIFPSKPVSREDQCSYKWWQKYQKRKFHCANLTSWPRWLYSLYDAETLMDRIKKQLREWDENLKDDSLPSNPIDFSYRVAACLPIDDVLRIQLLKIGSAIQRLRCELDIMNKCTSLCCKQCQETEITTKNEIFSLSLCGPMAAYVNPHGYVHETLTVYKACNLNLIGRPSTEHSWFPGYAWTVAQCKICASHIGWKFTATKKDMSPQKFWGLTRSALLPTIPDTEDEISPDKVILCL

O=C1CCC(N2C(=O)c3cccc(OCCOCCOCCOCCC(=O)Nc4cc5c(Nc6ccc(F)c(Cl)c6)ncnc5cc4O[C@H]4CCOC4)c3C2=O)C(=O)N1 (stereo partly specified)
IC50 (PC-9 [1]): 1300 nM
IC50 (PC-9 [2]): 1300 nM
Activity [3]: Active

O=C(CCOCCOCCOCCOc1cccc2c1C(=O)N(C1CCC(=O)N(Cc3ccc([N+](=O)[O-])cc3)C1=O)C2=O)Nc1cc2c(Nc3ccc(F)c(Cl)c3)ncnc2cc1O[C@H]1CCOC1 (stereo partly specified)
Activity (PC-9 [4]): 92.63%
Activity (PC-9 [5]): 6.26%
inhibition (PC-9 [6]): Active
Drug metabolism [7]: Metabolite_Detected
Activity (PC-9 [8]): 80.78%
Activity (PC-9 [9]): 2.98%
Activity (PC-9 [10]): 7.96%
IC50 (PC-9 [1]): 1920 nM
Stability [11]: Unstable
Activity [12]: Active
Activity (PC-9 [13]): 3.28%
Activity (PC-9 [14]): 9.37%
inhibition (PC-9 [15]): inactive
Activity (PC-9 [16]): 1.1%
IC50 (PC-9 [2]): 1090 nM
Activity [17]: inactive
Activity [18]: Active
Activity [19]: Active
Activity (PC-9 [20]): 1.89%
Activity (PC-9 [21]): 17.33%

Cn1c(CN2C(=O)CCC(N3C(=O)c4cccc(OCCOCCOCCOCCC(=O)Nc5cc6c(Nc7ccc(F)c(Cl)c7)ncnc6cc5O[C@H]5CCOC5)c4C3=O)C2=O)cnc1[N+](=O)[O-] (stereo partly specified)
Activity [22]: Active
Activity (PC-9 [4]): 75.71%
Activity [23]: inactive
Activity (PC-9 [5]): 22.11%
inhibition (PC-9 [6]): Active
Drug metabolism [7]: Metabolite_Detected
Activity (PC-9 [8]): 44.8%
Activity (PC-9 [9]): 11.21%
Activity (PC-9 [10]): 17.28%
IC50 (PC-9 [1]): 1100 nM
Stability [11]: Unstable
Activity (PC-9 [13]): 10.9%
Activity (PC-9 [14]): 35.08%
inhibition (PC-9 [15]): inactive
Activity (PC-9 [16]): 2.18%
IC50 (PC-9 [2]): 610 nM
Activity (PC-9 [20]): 2.83%
Activity (PC-9 [21]): 52.36%
